# Literature values in patent publication US6468944B1, “Method of preparing glyphosate herbicide formulations” (priority 1991, dated 2002).
structure (smiles),measurement,value
"O=C(O)CNCP(=O)(O)O [Glyphosate, N-phosphonomethylglycine]",solubility in water,relatively insoluble in water
